According to ChEMBL document CHEMBL5346961, “Discovery and Evaluation of 3-Quinoxalin Urea Derivatives as Potent, Selective, and Orally Available ATM Inhibitors Combined with Chemotherapy for the Treatment of Cancer via Goal-Oriented Molecule Generation and Virtual Screening” (J Med Chem, 2023):
The source made the active and inactive calls. The rule behind the calls is not given here.

How the values were obtained:
[1] = tested on: HCT-116; test: Induction of apoptosis in human HCT-116 cells assessed as viable cells at 4 uM measured after 2 days by AnnexinV-FITC/PI staining based analysis (reference value: 72.8%); assay type: functional; details: HCT-116, 48 h, time 2 day, read-out: Activity
[2] = tested on: HCT-116; test: Induction of DNA damage in human HCT-116 cells assessed as decrease in gammaH2AX fluorescence intensity measured after 6 hrs in presence of irinotecan by fluorescence microscopic analysis; assay type: functional, cell-based; details: dose 0.5-2 µM
[3] = tested on: SW-620; test: Antitumor activity against human SW620 cells xenografted in BALB/c nude mouse model assessed as tumor growth inhibition at 20 mg/kg, po administered once daily for 3 days weekly after irinotecan post treatment for 21 days by caliper method relative to control; assay type: functional; details: SW-620, 504 h, time 21 day, read-out: TGI
[4] = Toxicity in BALB/c nude mouse assessed as reduction in body weight at 20 to 40 mg/kg, po administered once daily for 3 days weekly after irinotecan post treatment for 21 days in presence of irinotecan relative to control; assay type: organism-based; design: scale not given: the % may be the effect or the level left; details: in vivo, 504 h, dose 20-40 mg/kg, time 21 day
[5] = tested on: HCT-116; test: Induction of apoptosis in human HCT-116 cells assessed as early apoptotic cells at 1 uM measured after 2 days by AnnexinV-FITC/PI staining based analysis (reference value: 14.4%); assay type: functional; details: time 2 day
[6] = tested on: HCT-116; test: Induction of apoptosis in human HCT-116 cells assessed as early apoptotic cells at 2 uM measured after 2 days in presence of irinotecan by AnnexinV-FITC/PI staining based analysis (reference value: 14.4%); assay type: functional; details: time 2 day
[7] = tested on: HCT-116; test: Induction of apoptosis in human HCT-116 cells assessed as late apoptotic cells at 2 uM measured after 2 days in presence of irinotecan by AnnexinV-FITC/PI staining based analysis (reference value: 12.2%); assay type: functional; details: time 2 day
[8] = tested on: HCT-116; test: Inhibition of colony formation in human HCT-116 cells preincubated for 1 hr followed by exposure to 2 Gy gamma irradiation and measured after 1 week by crystal violet staining based […] assay; assay type: functional, cell-based; details: HCT-116, light or radiation study
[9] = Cmax in Balb/C mouse at 10 mg/kg,iv measured upto 48 hrs by LC-MS/MS analysis; assay type: ADME, organism-based; design: time < 48 hrs, dose 10 mg/kg, route iv; details: in vivo
[10] = Volume of distribution at steady state in Balb/C mouse at 10 mg/kg,iv measured upto 48 hrs by LC-MS/MS analysis; assay type: ADME, organism-based; details: in vivo, read-out: Vdss
[11] = tested on: MCF7; test: Synergistic antiproliferative activity against human MCF7 cells assessed as fold increase in etoposide IC50 at 200 nM measured after 6 days by MTT assay; assay type: functional; details: time 6 day
[12] = tested on: HCT-116; test: Induction of cell cycle arrest in human HCT-116 cells assessed as loss in accumulation of cells at G0/G1 phase at 1 to 4 uM measured after 48 hrs in presence of irinotecan by propidium iodide staining based flow cytometry analysis; assay type: functional; details: dose 1-4 µM
[13] = tested on: SW-620; test: Antiproliferative activity against human SW620 cells assessed as reduction in cell viability incubated for 6 days by MTT assay; assay type: functional, cell-based; details: SW-620, 144 h
[14] = Efflux ratio of apparent permeability in human Caco-2 cells; assay type: ADME, cell-based
[15] = tested on: SW-620; test: Synergistic antiproliferative activity against human SW620 cells assessed as fold increase in irinotecan IC50 at 200 nM measured after 6 days by MTT assay; assay type: functional; details: time 6 day
[16] = tested on: SW-620; test: Antitumor activity against human SW620 cells xenografted in BALB/c nude mouse model assessed as tumor growth inhibition at 40 mg/kg, po administered once daily for 3 days weekly for 21 days by caliper method; assay type: functional, organism-based; details: time 21.0 day
[17] = tested on: HCT-116; test: Induction of cell cycle arrest in human HCT-116 cells assessed as increase in accumulation of cells at G2/M phase at 1 to 4 uM measured after 48 hrs in presence of irinotecan by propidium iodide staining based flow cytometry analysis; assay type: functional; details: dose 1-4 µM
[18] = biological target: T1, Serine-protein kinase ATM (Homo sapiens, UniProt Q13315); test: Inhibition of ATM (unknown origin) preincubated with compound for 30 mins followed by substrate addition and measured after 2 hrs by HTRF method
T1 sequence (Q13315 whole entry): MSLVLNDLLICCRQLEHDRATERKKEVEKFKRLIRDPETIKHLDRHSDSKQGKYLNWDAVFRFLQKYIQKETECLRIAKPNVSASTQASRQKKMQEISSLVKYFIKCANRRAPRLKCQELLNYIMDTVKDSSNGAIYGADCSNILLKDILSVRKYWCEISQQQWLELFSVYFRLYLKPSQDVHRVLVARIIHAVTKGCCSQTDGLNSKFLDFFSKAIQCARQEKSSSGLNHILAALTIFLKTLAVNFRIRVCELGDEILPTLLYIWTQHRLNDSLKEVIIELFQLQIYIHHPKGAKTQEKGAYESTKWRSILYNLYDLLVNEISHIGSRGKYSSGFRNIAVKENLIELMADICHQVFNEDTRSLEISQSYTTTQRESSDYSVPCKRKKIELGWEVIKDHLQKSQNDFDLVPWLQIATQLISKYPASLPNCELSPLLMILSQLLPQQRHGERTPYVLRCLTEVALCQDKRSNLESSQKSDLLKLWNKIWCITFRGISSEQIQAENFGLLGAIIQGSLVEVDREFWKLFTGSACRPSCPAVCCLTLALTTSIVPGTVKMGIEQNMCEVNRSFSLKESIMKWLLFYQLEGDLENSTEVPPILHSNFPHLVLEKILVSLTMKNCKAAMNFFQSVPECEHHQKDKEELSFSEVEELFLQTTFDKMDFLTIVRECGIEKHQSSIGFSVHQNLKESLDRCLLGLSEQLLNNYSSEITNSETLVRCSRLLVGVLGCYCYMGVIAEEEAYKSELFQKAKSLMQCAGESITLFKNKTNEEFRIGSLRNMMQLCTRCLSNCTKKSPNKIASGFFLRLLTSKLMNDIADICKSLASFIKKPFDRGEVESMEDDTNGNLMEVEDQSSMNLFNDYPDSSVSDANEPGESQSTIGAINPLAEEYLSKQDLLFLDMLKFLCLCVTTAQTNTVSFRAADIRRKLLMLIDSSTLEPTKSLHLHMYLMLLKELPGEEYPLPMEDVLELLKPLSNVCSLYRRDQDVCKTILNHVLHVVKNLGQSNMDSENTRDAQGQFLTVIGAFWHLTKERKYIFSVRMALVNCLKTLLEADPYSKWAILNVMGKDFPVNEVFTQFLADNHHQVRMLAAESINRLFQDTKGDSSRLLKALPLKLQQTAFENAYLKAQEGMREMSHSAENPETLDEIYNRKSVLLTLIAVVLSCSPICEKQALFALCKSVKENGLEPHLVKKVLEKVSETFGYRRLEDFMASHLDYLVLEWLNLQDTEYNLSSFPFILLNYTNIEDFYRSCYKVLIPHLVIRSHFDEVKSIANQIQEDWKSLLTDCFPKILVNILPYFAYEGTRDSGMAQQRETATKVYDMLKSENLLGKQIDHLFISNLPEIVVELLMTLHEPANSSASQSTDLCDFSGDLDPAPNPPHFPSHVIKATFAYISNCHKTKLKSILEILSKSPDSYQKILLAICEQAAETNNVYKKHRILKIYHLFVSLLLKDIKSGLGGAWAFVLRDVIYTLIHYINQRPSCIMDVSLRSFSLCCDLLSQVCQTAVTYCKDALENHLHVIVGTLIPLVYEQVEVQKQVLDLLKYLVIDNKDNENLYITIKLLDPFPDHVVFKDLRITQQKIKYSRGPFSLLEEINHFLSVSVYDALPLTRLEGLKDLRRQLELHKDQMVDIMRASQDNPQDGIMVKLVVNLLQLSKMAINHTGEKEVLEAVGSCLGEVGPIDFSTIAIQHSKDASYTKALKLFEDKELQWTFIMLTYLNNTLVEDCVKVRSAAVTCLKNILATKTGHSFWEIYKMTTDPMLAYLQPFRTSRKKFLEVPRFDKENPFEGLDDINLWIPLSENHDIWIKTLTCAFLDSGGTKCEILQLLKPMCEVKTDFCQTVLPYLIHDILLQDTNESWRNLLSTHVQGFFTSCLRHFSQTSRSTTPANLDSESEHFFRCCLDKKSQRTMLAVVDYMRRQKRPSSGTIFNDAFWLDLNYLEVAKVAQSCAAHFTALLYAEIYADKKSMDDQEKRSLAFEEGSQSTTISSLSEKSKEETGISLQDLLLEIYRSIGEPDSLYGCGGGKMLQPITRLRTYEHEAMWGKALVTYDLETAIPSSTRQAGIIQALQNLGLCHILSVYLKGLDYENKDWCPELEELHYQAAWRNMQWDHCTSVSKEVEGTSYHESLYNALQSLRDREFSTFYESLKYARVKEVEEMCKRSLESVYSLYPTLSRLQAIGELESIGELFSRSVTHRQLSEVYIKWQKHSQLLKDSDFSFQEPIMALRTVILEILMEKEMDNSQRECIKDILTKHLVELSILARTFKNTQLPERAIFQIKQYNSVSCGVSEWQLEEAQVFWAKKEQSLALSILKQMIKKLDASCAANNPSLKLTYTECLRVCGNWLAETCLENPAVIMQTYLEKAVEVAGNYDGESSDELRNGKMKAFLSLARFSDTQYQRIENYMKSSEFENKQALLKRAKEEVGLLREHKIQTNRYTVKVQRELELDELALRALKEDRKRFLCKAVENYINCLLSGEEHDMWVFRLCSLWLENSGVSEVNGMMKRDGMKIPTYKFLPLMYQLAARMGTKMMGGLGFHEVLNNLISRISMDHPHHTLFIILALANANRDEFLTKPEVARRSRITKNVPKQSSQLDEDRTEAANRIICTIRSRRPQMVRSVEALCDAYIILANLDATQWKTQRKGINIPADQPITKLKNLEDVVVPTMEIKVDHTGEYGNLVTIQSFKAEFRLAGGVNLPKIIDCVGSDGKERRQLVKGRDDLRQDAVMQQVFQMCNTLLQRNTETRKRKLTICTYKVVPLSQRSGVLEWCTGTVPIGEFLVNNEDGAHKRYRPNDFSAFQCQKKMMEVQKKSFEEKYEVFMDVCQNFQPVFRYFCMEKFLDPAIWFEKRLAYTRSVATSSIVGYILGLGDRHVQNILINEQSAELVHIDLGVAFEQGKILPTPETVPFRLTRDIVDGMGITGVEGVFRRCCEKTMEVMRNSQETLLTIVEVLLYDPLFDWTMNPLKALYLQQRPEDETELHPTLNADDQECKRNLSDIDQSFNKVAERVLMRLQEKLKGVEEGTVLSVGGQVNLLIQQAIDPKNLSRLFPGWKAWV

[19] = tested on: SW-620; test: Antitumor activity against human SW620 cells xenografted in BALB/c nude mouse model assessed as tumor growth inhibition at 40 mg/kg, po administered once daily for 3 days weekly after irinotecan post treatment for 21 days by caliper method relative to control; assay type: functional; details: SW-620, 504 h, time 21 day, read-out: TGI
[20] = biological target: T1, Serine-protein kinase ATM; test: Inhibition of ATM (unknown origin) assessed as remaining activity at 0.01 uM preincubated with compound for 30 mins followed by substrate addition and measured after 2 hrs by HTRF method relative to control; details: time 2.5 hrs
[21] = tested on: HCT-116; test: Induction of apoptosis in human HCT-116 cells assessed as viable cells at 2 uM measured after 2 days in presence of irinotecan by AnnexinV-FITC/PI staining based analysis (reference value: 72.8%); assay type: functional; details: HCT-116, 48 h, time 2 day, read-out: Activity
[22] = tested on: HCT-116; test: Induction of apoptosis in human HCT-116 cells assessed as necrotic cells at 1 uM measured after 2 days by AnnexinV-FITC/PI staining based analysis (reference value: 0.64%); assay type: functional; details: time 2 day
[23] = Tmax in Balb/C mouse at 10 mg/kg,iv measured upto 48 hrs by LC-MS/MS analysis; assay type: ADME, organism-based; details: in vivo
[24] = tested on: HCT-116; test: Induction of apoptosis in human HCT-116 cells assessed as late apoptotic cells at 4 uM measured after 2 days by AnnexinV-FITC/PI staining based analysis (reference value: 12.2%); assay type: functional; details: time 2 day
[25] = Half life in Balb/C mouse at 10 mg/kg,po measured upto 48 hrs by LC-MS/MS analysis; assay type: ADME, organism-based; details: in vivo
[26] = tested on: HCT-116; test: Induction of apoptosis in human HCT-116 cells assessed as viable cells at 1 uM measured after 2 days in presence of irinotecan by AnnexinV-FITC/PI staining based analysis (reference value: 72.8%); assay type: functional; details: HCT-116, 48 h, time 2 day, read-out: Activity
[27] = tested on: HCT-116; test: Induction of apoptosis in human HCT-116 cells assessed as necrotic cells at 4 uM measured after 2 days by AnnexinV-FITC/PI staining based analysis (reference value: 0.64%); assay type: functional; details: time 2 day
[28] = tested on: HCT-116; test: Induction of cell cycle arrest in human HCT-116 cells at 1 to 4 uM measured after 48 hrs by propidium iodide staining based flow cytometry analysis; assay type: functional; details: dose 1-4 µM
[29] = tested on: HCT-116; test: Induction of apoptosis in human HCT-116 cells assessed as necrotic cells at 2 uM measured after 2 days in presence of irinotecan by AnnexinV-FITC/PI staining based analysis (reference value: 0.64%); assay type: functional; details: time 2 day
[30] = tested on: HCT-116; test: Antiproliferative activity against human HCT-116 cells assessed as cell survival at 1 uM incubated for 6 days by MTT assay relative to control; assay type: functional; details: HCT-116, 144 h, time 6 day, read-out: Survival
[31] = tested on: HCT-116; test: Induction of apoptosis in human HCT-116 cells assessed as late apoptotic cells at 4 uM measured after 2 days in presence of irinotecan by AnnexinV-FITC/PI staining based analysis (reference value: 12.2%); assay type: functional; details: time 2 day
[32] = tested on: HCT-116; test: Induction of DNA damage in human HCT-116 cells assessed as reduction in p21 phosphorylation at T145 residue at 0.5 to 2 uM measured after 4 hrs by Western blot analysis; assay type: functional, cell-based; details: dose 0.5-2 µM
[33] = AUC (0 to t) in Balb/C mouse at 10 mg/kg,iv measured upto 48 hrs by LC-MS/MS analysis; assay type: ADME, organism-based; design: time < 48 hrs, dose 10 mg/kg, route iv; details: in vivo

CC(C)NC(=O)N(C)c1cnc2ccc(-c3ccc(OCCCN4CCCCC4)nc3)cc2n1
viability at 4 µM [1]: 68.3% | Activity [2]: Active | inhibition in vivo at 20 mg/kg [3]: 77.2% | Activity [4]: < 12% | Activity [5]: 18.3% | Activity [6]: 51.3% | Activity [7]: 33.1% | IC50 [8]: 1.69 nM | Cmax [9]: 6790 ng/mL | Vd [10]: 5.93 L/kg | fold change (FC) [11]: 5.2 | Activity [12]: Active | IC50 [13]: > 9000 nM | efflux ratio [14]: 2.37 | fold change (FC) [15]: 4.5 | Activity [16]: inactive | Activity [17]: Active | IC50 [18]: 1.15 nM | inhibition in vivo at 40 mg/kg [19]: 85.3% | Activity [20]: 2% | viability at 2 µM [21]: 14% | Activity [22]: 1.01% | Tmax [23]: 4.8 min | Activity [24]: 13% | t1/2 [25]: 3.37 h | viability at 1 µM [26]: 17.3% | Activity [27]: 0.6% | Activity [28]: inactive | Activity [29]: 1.67% | viability at 1 µM [30]: > 83% | Activity [31]: 35.2% | Activity [32]: Active | AUCt [33]: 13027.01 ng·h/mL
